Data from ChEMBL document CHEMBL3046635, “Synthesis and Herbicidal Activity of New Pyrazole-4-carboxamide Derivatives” (J Pestic Sci, 2004).
Calls of active or inactive are those of the source. Unless noted, no cut-off for these calls is given here.

test system: Oryza sativa; experiment: Phytotoxicity against Oryza sativa cv. Koshihikari (rice) at 100 g a.i/ha measured after 14 days; assay type: organism-based; conditions: in vivo, 336 h

Structure (SMILES) | Activity
Cn1cc(C(=O)NOc2ccc(Cl)cc2Cl)c(OCc2cccc(C(F)(F)F)c2)n1 | Non-toxic

test system: Pontederia vaginalis; experiment: Pre-emergence herbicidal activity against Monochoria vaginalis at 500 g a.i/ha measured after 14 days; assay type: functional, organism-based; conditions: not given

Structure (SMILES) | Activity
Cn1cc(C(=O)NOc2ccc(Cl)cc2Cl)c(OCc2cccc(C(F)(F)F)c2)n1 | Active

test system: Schoenoplectiella juncoides; experiment: Post-emergence herbicidal activity against Schoenoplectiella juncoides assessed as bleaching of stem/leaf parts; assay type: functional, organism-based; conditions: not given; note: test concentration or dose not given here

Structure (SMILES) | Activity
Cn1cc(C(=O)NOc2ccc(Cl)cc2Cl)c(OCc2cccc(C(F)(F)F)c2)n1 | Active

test system: Ammannia multiflora; experiment: Pre-emergence herbicidal activity against Ammannia multiflora at 500 g a.i/ha measured after 14 days; assay type: functional, organism-based; conditions: not given

Structure (SMILES) | Activity
Cn1cc(C(=O)NOc2ccc(Cl)cc2Cl)c(OCc2cccc(C(F)(F)F)c2)n1 | Active

test system: Rotala indica; experiment: Pre-emergence herbicidal activity against Rotala indica at 100 g a.i/ha measured after 14 days; assay type: functional, organism-based; conditions: not given

Structure (SMILES) | Activity
Cn1cc(C(=O)NOc2ccc(Cl)cc2Cl)c(OCc2cccc(C(F)(F)F)c2)n1 | Active

test system: Ammannia multiflora; experiment: Pre-emergence herbicidal activity against Ammannia multiflora assessed as bleaching of stem/leaf parts; assay type: functional, organism-based; conditions: not given

Structure (SMILES) | Activity
Cn1cc(C(=O)NOc2ccc(Cl)cc2Cl)c(OCc2cccc(C(F)(F)F)c2)n1 | Active

test system: Pontederia vaginalis; experiment: Post-emergence herbicidal activity against Monochoria vaginalis assessed as bleaching of stem/leaf parts; assay type: functional, organism-based; conditions: not given; note: test concentration or dose not given here

Structure (SMILES) | Activity
Cn1cc(C(=O)NOc2ccc(Cl)cc2Cl)c(OCc2cccc(C(F)(F)F)c2)n1 | Active

test system: Rotala indica; experiment: Pre-emergence herbicidal activity against Rotala indica assessed as bleaching of stem/leaf parts; assay type: functional, organism-based; conditions: not given

Structure (SMILES) | Activity
Cn1cc(C(=O)NOc2ccc(Cl)cc2Cl)c(OCc2cccc(C(F)(F)F)c2)n1 | Active

test system: Lindernia procumbens; experiment: Post-emergence herbicidal activity against Lindernia procumbens assessed as bleaching of stem/leaf parts; assay type: functional, organism-based; conditions: not given; note: test concentration or dose not given here

Structure (SMILES) | Activity
Cn1cc(C(=O)NOc2ccc(Cl)cc2Cl)c(OCc2cccc(C(F)(F)F)c2)n1 | Active

test system: Echinochloa oryzicola; experiment: Post-emergence herbicidal activity against Echinochloa oryzicola assessed as bleaching of stem/leaf parts; assay type: functional, organism-based; conditions: not given; note: test concentration or dose not given here

Structure (SMILES) | Activity
Cn1cc(C(=O)NOc2ccc(Cl)cc2Cl)c(OCc2cccc(C(F)(F)F)c2)n1 | Active

test system: Eleocharis acicularis; experiment: Post-emergence herbicidal activity against Eleocharis acicularis assessed as bleaching of stem/leaf parts; assay type: functional, organism-based; conditions: not given; note: test concentration or dose not given here

Structure (SMILES) | Activity
Cn1cc(C(=O)NOc2ccc(Cl)cc2Cl)c(OCc2cccc(C(F)(F)F)c2)n1 | Active

test system: Rotala indica; experiment: Pre-emergence herbicidal activity against Rotala indica at 500 g a.i/ha measured after 14 days; assay type: functional, organism-based; conditions: not given

Structure (SMILES) | Activity
Cn1cc(C(=O)NOc2ccc(Cl)cc2Cl)c(OCc2cccc(C(F)(F)F)c2)n1 | Active

test system: Ammannia multiflora; experiment: Post-emergence herbicidal activity against Ammannia multiflora assessed as bleaching of stem/leaf parts; assay type: functional, organism-based; conditions: not given; note: test concentration or dose not given here

Structure (SMILES) | Activity
Cn1cc(C(=O)NOc2ccc(Cl)cc2Cl)c(OCc2cccc(C(F)(F)F)c2)n1 | Active

test system: Pontederia vaginalis; experiment: Pre-emergence herbicidal activity against Monochoria vaginalis at 100 g a.i/ha measured after 14 days; assay type: functional, organism-based; conditions: not given

Structure (SMILES) | Activity
Cn1cc(C(=O)NOc2ccc(Cl)cc2Cl)c(OCc2cccc(C(F)(F)F)c2)n1 | Active

test system: Elatine triandra; experiment: Post-emergence herbicidal activity against Elatine triandra assessed as bleaching of stem/leaf parts; assay type: functional, organism-based; conditions: not given; note: test concentration or dose not given here

Structure (SMILES) | Activity
Cn1cc(C(=O)NOc2ccc(Cl)cc2Cl)c(OCc2cccc(C(F)(F)F)c2)n1 | Active

test system: Cyperus difformis; experiment: Pre-emergence herbicidal activity against Cyperus difformis at 100 g a.i/ha measured after 14 days; assay type: functional, organism-based; conditions: not given

Structure (SMILES) | Activity
Cn1cc(C(=O)NOc2ccc(Cl)cc2Cl)c(OCc2cccc(C(F)(F)F)c2)n1 | Active

test system: Echinochloa oryzicola; experiment: Pre-emergence herbicidal activity against Echinochloa oryzicola at 100 g a.i/ha measured after 14 days; assay type: functional, organism-based; conditions: not given

Structure (SMILES) | Activity
Cn1cc(C(=O)NOc2ccc(Cl)cc2Cl)c(OCc2cccc(C(F)(F)F)c2)n1 | Active

test system: Schoenoplectiella juncoides; experiment: Pre-emergence herbicidal activity against Schoenoplectiella juncoides at 100 g a.i/ha measured after 14 days; assay type: functional, organism-based; conditions: not given

Structure (SMILES) | Activity
Cn1cc(C(=O)NOc2ccc(Cl)cc2Cl)c(OCc2cccc(C(F)(F)F)c2)n1 | inactive

test system: Lindernia procumbens; experiment: Pre-emergence herbicidal activity against Lindernia procumbens at 500 g a.i/ha measured after 14 days; assay type: functional, organism-based; conditions: not given

Structure (SMILES) | Activity
Cn1cc(C(=O)NOc2ccc(Cl)cc2Cl)c(OCc2cccc(C(F)(F)F)c2)n1 | Active

test system: Cyperus difformis; experiment: Pre-emergence herbicidal activity against Cyperus difformis at 500 g a.i/ha measured after 14 days; assay type: functional, organism-based; conditions: not given

Structure (SMILES) | Activity
Cn1cc(C(=O)NOc2ccc(Cl)cc2Cl)c(OCc2cccc(C(F)(F)F)c2)n1 | Active

test system: Lindernia procumbens; experiment: Pre-emergence herbicidal activity against Lindernia procumbens at 100 g a.i/ha measured after 14 days; assay type: functional, organism-based; conditions: not given

Structure (SMILES) | Activity
Cn1cc(C(=O)NOc2ccc(Cl)cc2Cl)c(OCc2cccc(C(F)(F)F)c2)n1 | Active

test system: Eleocharis acicularis; experiment: Pre-emergence herbicidal activity against Eleocharis acicularis at 100 g a.i/ha measured after 14 days; assay type: functional, organism-based; conditions: not given

Structure (SMILES) | Activity
Cn1cc(C(=O)NOc2ccc(Cl)cc2Cl)c(OCc2cccc(C(F)(F)F)c2)n1 | Active

test system: Eleocharis acicularis; experiment: Pre-emergence herbicidal activity against Eleocharis acicularis assessed as bleaching of stem/leaf parts; assay type: functional, organism-based; conditions: not given

Structure (SMILES) | Activity
Cn1cc(C(=O)NOc2ccc(Cl)cc2Cl)c(OCc2cccc(C(F)(F)F)c2)n1 | Active

test system: Elatine triandra; experiment: Pre-emergence herbicidal activity against Elatine triandra assessed as bleaching of stem/leaf parts; assay type: functional, organism-based; conditions: not given

Structure (SMILES) | Activity
Cn1cc(C(=O)NOc2ccc(Cl)cc2Cl)c(OCc2cccc(C(F)(F)F)c2)n1 | Active

test system: Oryza sativa; experiment: Phytotoxicity against Oryza sativa cv. Koshihikari (rice) at 500 g a.i/ha measured after 14 days; assay type: organism-based; conditions: in vivo, 336 h

Structure (SMILES) | Activity
Cn1cc(C(=O)NOc2ccc(Cl)cc2Cl)c(OCc2cccc(C(F)(F)F)c2)n1 | Non-toxic

test system: Ammannia multiflora; experiment: Pre-emergence herbicidal activity against Ammannia multiflora at 100 g a.i/ha measured after 14 days; assay type: functional, organism-based; conditions: not given

Structure (SMILES) | Activity
Cn1cc(C(=O)NOc2ccc(Cl)cc2Cl)c(OCc2cccc(C(F)(F)F)c2)n1 | Active

test system: Rotala indica; experiment: Post-emergence herbicidal activity against Rotala indica assessed as bleaching of stem/leaf parts; assay type: functional, organism-based; conditions: not given; note: test concentration or dose not given here

Structure (SMILES) | Activity
Cn1cc(C(=O)NOc2ccc(Cl)cc2Cl)c(OCc2cccc(C(F)(F)F)c2)n1 | Active

test system: Schoenoplectiella juncoides; experiment: Pre-emergence herbicidal activity against Schoenoplectiella juncoides at 500 g a.i/ha measured after 14 days; assay type: functional, organism-based; conditions: not given

Structure (SMILES) | Activity
Cn1cc(C(=O)NOc2ccc(Cl)cc2Cl)c(OCc2cccc(C(F)(F)F)c2)n1 | Active

test system: Echinochloa oryzicola; experiment: Pre-emergence herbicidal activity against Echinochloa oryzicola assessed as bleaching of stem/leaf parts; assay type: functional, organism-based; conditions: not given

Structure (SMILES) | Activity
Cn1cc(C(=O)NOc2ccc(Cl)cc2Cl)c(OCc2cccc(C(F)(F)F)c2)n1 | Active

test system: Echinochloa oryzicola; experiment: Pre-emergence herbicidal activity against Echinochloa oryzicola at 500 g a.i/ha measured after 14 days; assay type: functional, organism-based; conditions: not given

Structure (SMILES) | Activity
Cn1cc(C(=O)NOc2ccc(Cl)cc2Cl)c(OCc2cccc(C(F)(F)F)c2)n1 | Active

test system: Schoenoplectiella juncoides; experiment: Pre-emergence herbicidal activity against Schoenoplectiella juncoides assessed as bleaching of stem/leaf parts; assay type: functional, organism-based; conditions: not given

Structure (SMILES) | Activity
Cn1cc(C(=O)NOc2ccc(Cl)cc2Cl)c(OCc2cccc(C(F)(F)F)c2)n1 | Active

test system: Cyperus difformis; experiment: Pre-emergence herbicidal activity against Cyperus difformis assessed as bleaching of stem/leaf parts; assay type: functional, organism-based; conditions: not given

Structure (SMILES) | Activity
Cn1cc(C(=O)NOc2ccc(Cl)cc2Cl)c(OCc2cccc(C(F)(F)F)c2)n1 | Active

test system: Lindernia procumbens; experiment: Pre-emergence herbicidal activity against Lindernia procumbens assessed as bleaching of stem/leaf parts; assay type: functional, organism-based; conditions: not given

Structure (SMILES) | Activity
Cn1cc(C(=O)NOc2ccc(Cl)cc2Cl)c(OCc2cccc(C(F)(F)F)c2)n1 | Active

test system: Elatine triandra; experiment: Pre-emergence herbicidal activity against Elatine triandra at 500 g a.i/ha measured after 14 days; assay type: functional, organism-based; conditions: not given

Structure (SMILES) | Activity
Cn1cc(C(=O)NOc2ccc(Cl)cc2Cl)c(OCc2cccc(C(F)(F)F)c2)n1 | Active

test system: Elatine triandra; experiment: Pre-emergence herbicidal activity against Elatine triandra at 100 g a.i/ha measured after 14 days; assay type: functional, organism-based; conditions: not given

Structure (SMILES) | Activity
Cn1cc(C(=O)NOc2ccc(Cl)cc2Cl)c(OCc2cccc(C(F)(F)F)c2)n1 | Active

test system: Eleocharis acicularis; experiment: Pre-emergence herbicidal activity against Eleocharis acicularis at 500 g a.i/ha measured after 14 days; assay type: functional, organism-based; conditions: not given

Structure (SMILES) | Activity
Cn1cc(C(=O)NOc2ccc(Cl)cc2Cl)c(OCc2cccc(C(F)(F)F)c2)n1 | Active

test system: Cyperus difformis; experiment: Post-emergence herbicidal activity against Cyperus difformis assessed as bleaching of stem/leaf parts; assay type: functional, organism-based; conditions: not given; note: test concentration or dose not given here

Structure (SMILES) | Activity
Cn1cc(C(=O)NOc2ccc(Cl)cc2Cl)c(OCc2cccc(C(F)(F)F)c2)n1 | Active

test system: Pontederia vaginalis; experiment: Pre-emergence herbicidal activity against Monochoria vaginalis assessed as bleaching of stem/leaf parts; assay type: functional, organism-based; conditions: not given

Structure (SMILES) | Activity
Cn1cc(C(=O)NOc2ccc(Cl)cc2Cl)c(OCc2cccc(C(F)(F)F)c2)n1 | Active
